Article PMC2662877, “A novel method for screening the glutathione transferase inhibitors” (BMC Biochemistry, 2009)
No end group written: not given here.

Assays:
[1] = biological target: T1, GST (Schistosoma japonicum, UniProt P08515); test: biochemical; type: biochemical; details: inhibitor 1 μM, DCNB 1 mM, glutathione 1 mM, 25°C; for Specific GST activity: mean ± SD of triplicate, control 4.51 ± 0.02
T1 construct: purchased Sigma-Aldrich

[2] = biological target: T1, GST; test: biochemical; type: biochemical; details: for Specific GST activity: mean ± SD of triplicate, control 2.80 ± 0.01; for order of inhibition efficiencies: with the use of CDNB or DCNB as the substrates, inhibitors 1 μM; for inhibition of GST activity, in words: control peptides, CDNB or DCNB as substrates
Method: Figure 3 Effects of F1 and F2 peptides on the activity of GST (μmol/mg/min). The activity was measured by monitoring the GST activity with different peptide concentrations, 1 mM glutathione (GSH) and 1 mM CDNB in 100 mM potassium phosphate buffer (pH6.5) at 25°C.
(§1) The peptide concentration resulting in 50% inhibition (IC50) was determined from a plot of remaining activity versus peptide concentration. Protein concentration was measured according to the Lowry method. Enzyme inhibitory kinetic studies were carried out using various concentrations of glutathione and CDNB and different concentrations of synthetic peptides (0.8, 1.6, 3.2 μM).

[3] = tested on: cancer cell lines with increased GST expression; details: ref [25]; cited from earlier work
Text: (§2) The development of resistance to anticancer agents is a primary concern in cancer chemotherapy.

[4] = biological target: T1, GST; test: biochemical; type: biochemical; details: for effect on Vmax and Km, in words: changing glutathione and peptide concentrations
Method: To obtain information on the nature of the inhibition by F1 and F2 peptides, GST activity was measured with variable concentrations of glutathione. Here, we applied a new model in describing enzyme inhibitor (Fig. 4).
The Lineweaver-Burk plot for glutathione as the variable peptide concentration was applied to determine the types of inhibition caused by F1 and F2 peptides. The plot provides a useful graphical method for analysis of the Michaelis-Menten equation. The effects of the peptide on GST-catalyzed reaction kinetics were determined by analysis of apparent Vmax, inhibitor constant Ki and [I]/Ki values.
Figure 5 Lineweaver-Burk plot of the GST activity with varying glutathione (GSH) concentrations. A): The activity was measured with 1 mM CDNB, and different concentrations of GSH, and the F1 peptide. B): The activity was measured with 1 mM CDNB, and different concentrations of GSH, and the F2 peptide.
as §1

[5] = binding of synthesized peptides to glutathione Sepharose 4B beads; details: for binding to glutathione Sepharose 4B beads, in words: control peptides lacking glutathione-interacting residues
Method: The binding characteristics of selected peptides to glutathione were determined according to the analysis of binding of synthesized peptides to the glutathione Sepharose 4B beads. The amount of glutathione in the glutathione Sepharose 4B beads was estimated according to the assumption (according to the manufacturere's information) that there are about 200–400 μmol glutathione/g dried beads. An average value of 300 μmol glutathione/g dried beads was used to calculate the amount of glutathione in the glutathione Sepharose 4B beads. In our experiments, appropriate amount of wet glutathione Sepharose 4B beads (equal to 1 mg dry beads) was added to a 1.5 ml Eppendorf tube, and different amounts of synthesized peptides were added into the tube. After binding for 10 min at 37°C, the binding complexes were separated by centrifugation (12,000 × g for 10 min) and concentrations of bound and free peptides were determined by using the Lowry method. Scatchard analysis was used to determine the Kd and Bmax values. Bmax means the maximum binding sites of synthesized peptide on glutathione Speharose 4B beads (μmol peptide/μmol glutathione). Kd is a dissociation constant (pM). Thus, a low Kd value indicates a high affinity.

[6] = tested on: GST; details: first-generation GST inhibitors; no reference given; cited from earlier work
Text: as §2

[7] = control 100%, % sign missing in F1 cell
[8] = inhibitor 1 μM, CDNB 1 mM, glutathione 1 mM, 25°C, control 100%
[9] = inhibitor 1 μM, CDNB 1 mM, glutathione 1 mM, 25°C
[10] = after elution with elution buffer
[11] = before elution, ratio of peptide concentrations after and before binding

T1 sequence (P08515 whole entry): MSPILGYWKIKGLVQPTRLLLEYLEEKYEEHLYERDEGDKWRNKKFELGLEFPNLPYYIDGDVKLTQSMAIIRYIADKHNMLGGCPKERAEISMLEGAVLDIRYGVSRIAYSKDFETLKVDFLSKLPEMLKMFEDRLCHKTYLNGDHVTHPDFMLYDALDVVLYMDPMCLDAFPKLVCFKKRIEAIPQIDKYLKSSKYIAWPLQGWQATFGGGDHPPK

Nc1c(S(=O)(=O)O)cc(Nc2ccc(Nc3nc(Cl)nc(Nc4ccccc4S(=O)(=O)O)n3)c(S(=O)(=O)O)c2)c2c1C(=O)c1ccccc1C2=O [cibacron blue]
remaining activity at 1 µM [1, 7]: 21.3%
Specific GST activity [1]: 0.96 ± 0.01 units/mg
remaining activity at 1 µM [2, 8]: 18.3%
Specific GST activity [2, 9]: 0.51 ± 0.01 units/mg
order of inhibition efficiencies [2]: tannic acid > cibacron blue > F2 peptide > hematin > F1 peptide > ethacrynic acid

C=C[C@H]1C[N@@]2CC[C@H]1C[C@H]2[C@H](O)c1ccnc2ccc(OC)cc12 [quinine]
reversal of resistance to melphalan and doxorubicin [3]: reported to reverse the resistance to melphalan and doxorubicin

KWRNKKFELGLEFPNL [F2 peptide]
Ki ([4]; F2 peptide 0.8 μM, competitive): 1.53 µM
Ki ([4]; F2 peptide 1.6 μM, competitive): 1.6 µM
Ki ([4]; F2 peptide 3.2 μM, competitive): 2.42 µM
effect on Vmax and Km, in words [4]: Km decreased while Vmax remained unchanged
IC50 [2]: 0.6 µM

GYWKIKGLV [F1 peptide]
Ki ([4]; F1 peptide 0.8 μM, noncompetitive): 4 µM
Ki ([4]; F1 peptide 1.6 μM, noncompetitive): 4.57 µM
Ki ([4]; F1 peptide 3.2 μM, noncompetitive): 5.82 µM
effect on Vmax and Km, in words [4]: Vmax decreased while Km remained unchanged
IC50 [2]: 0.8 µM

tannic acid
GST activity remaining, % of control [1, 7]: 10.9%
Specific GST activity [1]: 0.49 ± 0.01 units/mg
GST activity remaining, % of control [2, 8]: 5.6%
Specific GST activity [2, 9]: 0.16 ± 0.01 units/mg
order of inhibition efficiencies [2]: tannic acid > cibacron blue > F2 peptide > hematin > F1 peptide > ethacrynic acid

C=CC1=C(C)c2cc3[n-]c(cc4[n-]c(cc5nc(cc1n2)C(C)=C5C=C)c(C)c4CCC(=O)O)c(CCC(=O)O)c3C.O.[Fe+2] [hematin]
GST activity remaining, % of control [1, 7]: 42.1%
Specific GST activity [1]: 1.90 ± 0.02 units/mg
GST activity remaining, % of control [2, 8]: 35.2%
Specific GST activity [2, 9]: 0.99 ± 0.01 units/mg
order of inhibition efficiencies [2]: tannic acid > cibacron blue > F2 peptide > hematin > F1 peptide > ethacrynic acid

KWNKFELGLEFPL [F4 peptide, control peptide F4, lacking Arg41, Lys44 and Asn53 residues]
Binding efficiency [5, 10]: 2.5%
Binding efficiency [5, 11]: 2.6%
binding to glutathione Sepharose 4B beads, in words [5]: could not bind efficiently
inhibition of GST activity, in words [2]: could not find any significant inhibition of the GST activity

GKIKGV [F3 peptide, control peptide F3, lacking Tyr6, Trp7 and Leu12]
Binding efficiency [5, 10]: 1.2%
Binding efficiency [5, 11]: 1.2%
binding to glutathione Sepharose 4B beads, in words [5]: could not bind efficiently
inhibition of GST activity, in words [2]: could not find any significant inhibition of the GST activity

C=C(CC)C(=O)c1ccc(OCC(=O)O)c(Cl)c1Cl [ethacrynic acid]
Specific GST activity [1]: 3.66 ± 0.02 units/mg
outcome in clinical trials [6]: unsuccessful in clinical trials
Specific GST activity [2, 9]: 1.54 ± 0.01 units/mg
